Reference: PubChem BioAssay (NCI)
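Tested at 5 concentrations; 48 h exposure; 96-well plates; endpoints linearly interpolated, else capped at highest concentration. TGI marks complete inhibition of growth.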

These molecules were tested on CAKI-1 renal (assay: NCI tumour cell line growth inhibition, 48 h).
In the case of `O=c1c(-c2ccc(Cl)cc2)nnc2n(Cc3ccccc3)c3ccccc3n12`, the TGI is reported as 59.8 µM.
For `Nc1c(C(=O)c2ccc(Cl)cc2)[nH]c(NCc2ccccc2)c1C(=S)Nc1ccccc1`, the TGI was 18.6 µM.
In the case of `CCC(C)C(=O)OC1CC2(C)C(c3ccoc3)OC(=O)CC23OC2(C)OC34C(OC(=O)C(C)C)C3(O)C(OC(=O)C5(C)OC5C)C5(C)CC3(O)C(C)(C5CC(=O)OC)C14O2` (stereo not drawn), the TGI is reported as > 100 µM.
For `c1ccc2c3c(c(N4CCOCC4)nc2c1)CCCC3`, the TGI was > 100 µM.
`O=C(Nc1ccccc1C(=O)NCCCO)/C(=C/c1ccccc1O)NC(=O)c1ccccc1` was tested, and the TGI was > 100 µM.
Work on `FC(F)(F)c1ccc2nc3n(c2c1)C(c1c(Cl)cccc1Cl)SC3` (stereo not drawn) yielded a TGI of 28 µM.
For `CCC(=O)Oc1c2ccsc2c(OC(=O)CC)c2ccsc12`, the TGI was 6.13 µM.
With `NC(=O)c1cc2ccccc2o/c1=N/O` the TGI was 70.3 µM.
With `COC(=O)C1CC2(c3ccccc3)C(=O)c3ccccc3N2O1` (stereo not drawn) the TGI was > 100 µM.
`COc1cc2c(/C=C3/C(=O)Nc4ccccc43)c(Cl)[nH]c2cc1C` showed a TGI of 23.6 µM.
For `O=C(O)C(CO)NC(=O)n1c2ccccc2c2ccccc21` (stereo not drawn), the TGI was > 100 µM.
`Brc1ccc2c(-c3csc(-c4c[nH]c5ccc(Br)cc45)n3)c[nH]c2c1` showed a TGI of 9.81 µM.
In the case of `Cc1c2ncccc2cc2oc3ccccc3c(=O)c12`, the TGI is reported as > 100 µM.
`CC1(C)OCC2OC3([C@H]4OC(C)(C)O[C@@H]4CO)OC(C)(C)OC3C2O1` (stereo partly drawn) was tested, and the TGI was > 100 µM.
`O=C(Nc1cccc(O)c1)C(=O)C(C(=O)c1ccccc1F)C1OC(=O)c2ccccc21` (stereo not drawn) showed a TGI of 94 µM.
`Clc1ccc(OCc2nnc(CCCCCCCCc3nnc(COc4ccc(Cl)cc4)n3Nc3ccccc3)n2Nc2ccccc2)cc1` was tested, and the TGI was 27.2 µM.

Each molecule was assayed on HOP-92 NSCLC (assay: NCI tumour cell line growth inhibition, 48 h).
For `COc1ccc2c(c1)CN1C(=N2)CSC1c1ccccc1Cl` (stereo not drawn), the TGI was 31.2 µM.
`CC1(CNCc2ccccc2)CC(CCc2ccccc2)N(C(=O)c2ccc([N+](=O)[O-])cc2)C1Cc1ccc(O)cc1` (stereo not drawn) showed a TGI of 9.88 µM.
With `Cc1cc2[nH]c3c(C#N)c4c(c(=O)n3c2cc1C)CCCC4` the TGI was > 100 µM.
With `O=C1CSC(c2cccs2)N1c1nc2cc3sc(N4C(=O)CSC4c4cccs4)nc3cc2s1` (stereo not drawn) the TGI was > 50 µM.
For `Cc1cn(C(C)OCCN2C(=O)c3ccccc3C2=O)c(=O)[nH]c1=O` (stereo not drawn), the TGI was > 100 µM.
`CCOC(=O)C1=C(OC(OCC)C(CC)[Se]c2ccccc2)CCCC1` (stereo not drawn) gave a TGI of 46 µM.
For `NC(N)=NS(=O)(=O)c1ccc(NC(=O)c2ccc3nc4ccccc4c(Nc4ccc(S(=O)(=O)N=C(N)N)cc4)c3c2)cc1`, the TGI was > 100 µM.
`COc1ccc2cc(NC(=O)N/N=C\c3ccc(Cl)cc3)ccc2c1` was tested, and the TGI was > 100 µM.
`Brc1cc2nn(-c3ccccc3)nc2c2nonc12` was tested, and the TGI was > 100 µM.
With `CCOC(=O)C(NC(=O)CC(C)C)(N1CCN(c2cc3c(cc2F)c(=O)c(C(=O)O)cn3C2CC2)CC1)C(F)(F)F` (stereo not drawn) the TGI was 25.3 µM.
For `Cc1cn([C@@H]2C[C@H]2CO)c(=O)[nH]c1=O`, the TGI was > 100 µM.
For `c1ccc(/C(=N/Nc2ccccn2)c2ncccn2)cc1`, the TGI was > 34.5 µM.
With `O=C1C=CC(=O)c2c(O)c(NCCc3ccc(O)cc3)c(Cl)c(O)c21` the TGI was > 10 µM.
For `COc1cc(I)c2c3c1OC1C34CCN(C)C(C2)C4=CC(I)C1(OC)OC` (stereo not drawn), the TGI was 45.6 µM.
With `NC(=O)C(=CNC(=S)c1ccncc1)C(N)=O` the TGI was > 100 µM.
`O=c1c(-c2ccc(Cl)cc2)nnc2n(Cc3ccccc3)c3ccccc3n12` showed a TGI of 42.6 µM.
In the case of `Nc1c(C(=O)c2ccc(Cl)cc2)[nH]c(NCc2ccccc2)c1C(=S)Nc1ccccc1`, the TGI is reported as 9.02 µM.
With `CCC(C)C(=O)OC1CC2(C)C(c3ccoc3)OC(=O)CC23OC2(C)OC34C(OC(=O)C(C)C)C3(O)C(OC(=O)C5(C)OC5C)C5(C)CC3(O)C(C)(C5CC(=O)OC)C14O2` (stereo not drawn) the TGI was > 100 µM.
`c1ccc2c3c(c(N4CCOCC4)nc2c1)CCCC3` was tested, and the TGI was > 100 µM.
For `O=C(Nc1ccccc1C(=O)NCCCO)/C(=C/c1ccccc1O)NC(=O)c1ccccc1`, the TGI was > 100 µM.
`FC(F)(F)c1ccc2nc3n(c2c1)C(c1c(Cl)cccc1Cl)SC3` (stereo not drawn) showed a TGI of 17.7 µM.
`CCC(=O)Oc1c2ccsc2c(OC(=O)CC)c2ccsc12` showed a TGI of 3.98 µM.
In the case of `NC(=O)c1cc2ccccc2o/c1=N/O`, the TGI is reported as > 100 µM.
For `COC(=O)C1CC2(c3ccccc3)C(=O)c3ccccc3N2O1` (stereo not drawn), the TGI was > 100 µM.
Molecule `COc1cc2c(/C=C3/C(=O)Nc4ccccc43)c(Cl)[nH]c2cc1C` has a TGI of 26.6 µM.
In the case of `O=C(O)C(CO)NC(=O)n1c2ccccc2c2ccccc21` (stereo not drawn), the TGI is reported as > 100 µM.
`Brc1ccc2c(-c3csc(-c4c[nH]c5ccc(Br)cc45)n3)c[nH]c2c1` was tested, and the TGI was 9.27 µM.
For `Cc1c2ncccc2cc2oc3ccccc3c(=O)c12`, the TGI was 92.7 µM.
For `CC1(C)OCC2OC3([C@H]4OC(C)(C)O[C@@H]4CO)OC(C)(C)OC3C2O1` (stereo partly drawn), the TGI was > 100 µM.
`O=C(Nc1cccc(O)c1)C(=O)C(C(=O)c1ccccc1F)C1OC(=O)c2ccccc21` (stereo not drawn) was tested, and the TGI was > 100 µM.
With `Clc1ccc(OCc2nnc(CCCCCCCCc3nnc(COc4ccc(Cl)cc4)n3Nc3ccccc3)n2Nc2ccccc2)cc1` the TGI was 77 µM.

The molecules below were run on IGROV1 ovarian (assay: NCI tumour cell line growth inhibition, 48 h).
`COc1ccc2c(c1)CN1C(=N2)CSC1c1ccccc1Cl` (stereo not drawn) showed a TGI of 42.2 µM.
Molecule `CC1(CNCc2ccccc2)CC(CCc2ccccc2)N(C(=O)c2ccc([N+](=O)[O-])cc2)C1Cc1ccc(O)cc1` (stereo not drawn) has a TGI of 31.2 µM.
In the case of `Cc1cc2[nH]c3c(C#N)c4c(c(=O)n3c2cc1C)CCCC4`, the TGI is reported as > 100 µM.
`O=C1CSC(c2cccs2)N1c1nc2cc3sc(N4C(=O)CSC4c4cccs4)nc3cc2s1` (stereo not drawn) was tested, and the TGI was > 50 µM.
In the case of `Cc1cn(C(C)OCCN2C(=O)c3ccccc3C2=O)c(=O)[nH]c1=O` (stereo not drawn), the TGI is reported as > 100 µM.
For `CCOC(=O)C1=C(OC(OCC)C(CC)[Se]c2ccccc2)CCCC1` (stereo not drawn), the TGI was > 100 µM.
With `NC(N)=NS(=O)(=O)c1ccc(NC(=O)c2ccc3nc4ccccc4c(Nc4ccc(S(=O)(=O)N=C(N)N)cc4)c3c2)cc1` the TGI was > 100 µM.
With `COc1ccc2cc(NC(=O)N/N=C\c3ccc(Cl)cc3)ccc2c1` the TGI was > 100 µM.
With `Brc1cc2nn(-c3ccccc3)nc2c2nonc12` the TGI was > 100 µM.
In the case of `CCOC(=O)C(NC(=O)CC(C)C)(N1CCN(c2cc3c(cc2F)c(=O)c(C(=O)O)cn3C2CC2)CC1)C(F)(F)F` (stereo not drawn), the TGI is reported as 37.6 µM.
For `Cc1cn([C@@H]2C[C@H]2CO)c(=O)[nH]c1=O`, the TGI was > 100 µM.
`c1ccc(/C(=N/Nc2ccccn2)c2ncccn2)cc1` was tested, and the TGI was > 21 µM.
With `O=C1C=CC(=O)c2c(O)c(NCCc3ccc(O)cc3)c(Cl)c(O)c21` the TGI was > 10 µM.
Work on `COc1cc(I)c2c3c1OC1C34CCN(C)C(C2)C4=CC(I)C1(OC)OC` (stereo not drawn) yielded a TGI of 54.3 µM.
With `NC(=O)C(=CNC(=S)c1ccncc1)C(N)=O` the TGI was > 100 µM.
In the case of `O=c1c(-c2ccc(Cl)cc2)nnc2n(Cc3ccccc3)c3ccccc3n12`, the TGI is reported as > 100 µM.
In the case of `Nc1c(C(=O)c2ccc(Cl)cc2)[nH]c(NCc2ccccc2)c1C(=S)Nc1ccccc1`, the TGI is reported as 6.43 µM.
For `CCC(C)C(=O)OC1CC2(C)C(c3ccoc3)OC(=O)CC23OC2(C)OC34C(OC(=O)C(C)C)C3(O)C(OC(=O)C5(C)OC5C)C5(C)CC3(O)C(C)(C5CC(=O)OC)C14O2` (stereo not drawn), the TGI was > 100 µM.
In the case of `c1ccc2c3c(c(N4CCOCC4)nc2c1)CCCC3`, the TGI is reported as > 100 µM.
`O=C(Nc1ccccc1C(=O)NCCCO)/C(=C/c1ccccc1O)NC(=O)c1ccccc1` was tested, and the TGI was > 100 µM.
`FC(F)(F)c1ccc2nc3n(c2c1)C(c1c(Cl)cccc1Cl)SC3` (stereo not drawn) showed a TGI of 24.1 µM.
In the case of `CCC(=O)Oc1c2ccsc2c(OC(=O)CC)c2ccsc12`, the TGI is reported as 3.65 µM.
In the case of `NC(=O)c1cc2ccccc2o/c1=N/O`, the TGI is reported as > 100 µM.
`COC(=O)C1CC2(c3ccccc3)C(=O)c3ccccc3N2O1` (stereo not drawn) was tested, and the TGI was > 100 µM.
In the case of `COc1cc2c(/C=C3/C(=O)Nc4ccccc43)c(Cl)[nH]c2cc1C`, the TGI is reported as 1.1 µM.
In the case of `O=C(O)C(CO)NC(=O)n1c2ccccc2c2ccccc21` (stereo not drawn), the TGI is reported as > 100 µM.
In the case of `Brc1ccc2c(-c3csc(-c4c[nH]c5ccc(Br)cc45)n3)c[nH]c2c1`, the TGI is reported as 16.4 µM.
For `Cc1c2ncccc2cc2oc3ccccc3c(=O)c12`, the TGI was > 100 µM.
For `CC1(C)OCC2OC3([C@H]4OC(C)(C)O[C@@H]4CO)OC(C)(C)OC3C2O1` (stereo partly drawn), the TGI was > 100 µM.
For `O=C(Nc1cccc(O)c1)C(=O)C(C(=O)c1ccccc1F)C1OC(=O)c2ccccc21` (stereo not drawn), the TGI was > 100 µM.
`Clc1ccc(OCc2nnc(CCCCCCCCc3nnc(COc4ccc(Cl)cc4)n3Nc3ccccc3)n2Nc2ccccc2)cc1` was tested, and the TGI was > 100 µM.
